Test results from patent US6355799B1, “Substituted benzene compounds, process for their preparation, and herbicidal and defoliant compositions containing them” (ISK Americas Incorporated, priority 1997, dated 2002).

How the values were obtained:
Type in all cases: in vivo
[1] = tested on: redroot pigweed (Amaranthus retroflexus, AMARE); test: Pre-emerge test, greenhouse herbicide activity screening; settings: rated 14 days after application, 0 = no damage, 100 = complete death
Method in brief: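 Compounds in acetone were track-sprayed at 187 l/ha, 15–1000 g ai/ha, onto sandy loam pots. Pre-emerge seeds were sown one day before spraying, with surface watering afterwards. Post-emerge plants were at the 2–3 leaf stage and sprayed with 0.25% v/v non-ionic surfactant. Injury was rated 0–100 at 14 days.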

[2] = tested on: barnyardgrass (Echinochloa crus-galli, ECHCG); test: as above; settings: rated 14 days after application, 0 = no damage, 100 = complete death
Method in brief: (§1)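 Visual ratings on a 0-100 scale (0 no damage, 100 all plants dead) were taken at 14 days after treatment. Rates of 15-1000 g ai/ha in acetone, 187 l/ha, were sprayed onto soil one day after planting (pre-emerge) or onto 2-3 leaf plants with 0.25% v/v surfactant (post-emerge).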

[3] = tested on: green foxtail (Setaria viridis, SETVI); test: as above; settings: rated 14 days after application, 0 = no damage, 100 = complete death
Method in brief: as §1

[4] = tested on: ivyleaf morningglory (Ipomoea hederacea, IPOHE); test: as above; settings: rated 14 days after application, 0 = no damage, 100 = complete death
Method in brief: as §1

[5] = tested on: johnsongrass (Sorghum halepense, SORHA); test: as above; settings: rated 14 days after application, 0 = no damage, 100 = complete death
Method in brief: as §1

[6] = tested on: lambsquarters (Chenopodium album, CHEAL); test: as above; settings: rated 14 days after application, 0 = no damage, 100 = complete death
Method in brief: as §1

[7] = tested on: large crabgrass (Digitaria sanguinalis, DIGSA); test: as above; settings: rated 14 days after application, 0 = no damage, 100 = complete death
Method in brief: as §1

[8] = tested on: sicklepod (Cassia obtusifolia, CASOB); test: as above; settings: rated 14 days after application, 0 = no damage, 100 = complete death
Method in brief: as §1

[9] = tested on: velvetleaf (Abutilon theophrasti, ABUTH); test: as above; settings: rated 14 days after application, 0 = no damage, 100 = complete death
Method in brief: as §1

[10] = tested on: field corn (Zea mays L., var. Dekalb 535, CORN); test: Pre-emerge test, crop safety; settings: rated 14 days after application, 0 = no damage, 100 = complete death
Method in brief: (§2)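 Sandy loam pots; pre-emerge: sown 1 d pre-spray, surface-watered after, then bottom-watered. Post-emerge: sown 8–21 d before, 2–3 leaf stage, + 0.25% v/v NIS, bottom-watered. Acetone, 187 l/ha track spray, 15–1000 g ai/ha. 0–100 injury score, day 14.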

[11] = tested on: upland rice (Oryza sp., var. Tebonnet, RICE); test: Pre-emerge test, crop safety; settings: rated 14 days after application, 0 = no damage, 100 = complete death
Method in brief: as §2

[12] = tested on: barnyardgrass (Echinochloa crus-galli, ECHCG); test: Post-emerge test, greenhouse herbicide activity screening; settings: post-emerge, 14 days after application, rating scale 0-100
Method in brief: (§3)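 Applied at 15–1000 g ai/ha from acetone in 187 l/ha spray volume. Post-emergence applications included 0.25% v/v non-ionic surfactant and reached plants sown 8–21 days before. Pre-emergence applications were incorporated by surface watering. Efficacy or crop damage was rated on a 0–100 scale after 14 days.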

[13] = tested on: green foxtail (Setaria viridis, SETVI); test: as above; settings: post-emerge, 14 days after application, rating scale 0-100
Method in brief: as §3

[14] = tested on: ivyleaf morningglory (Ipomoea hederacea, IPOHE); test: as above; settings: post-emerge, 14 days after application, rating scale 0-100
Method in brief: as §3

[15] = tested on: johnsongrass (Sorghum halepense, SORHA); test: as above; settings: post-emerge, 14 days after application, rating scale 0-100
Method in brief: as §3

[16] = tested on: lambsquarters (Chenopodium album, CHEAL); test: as above; settings: post-emerge, 14 days after application, rating scale 0-100
Method in brief: as §3

[17] = tested on: large crabgrass (Digitaria sanguinalis, DIGSA); test: as above; settings: post-emerge, 14 days after application, rating scale 0-100
Method in brief: as §3

[18] = tested on: redroot pigweed (Amaranthus retroflexus, AMARE); test: as above; settings: post-emerge, 14 days after application, rating scale 0-100
Method in brief: as §3

[19] = tested on: sicklepod (Cassia obtusifolia, CASOB); test: as above; settings: post-emerge, 14 days after application, rating scale 0-100
Method in brief: as §3

[20] = tested on: velvetleaf (Abutilon theophrasti, ABUTH); test: as above; settings: post-emerge, 14 days after application, rating scale 0-100
Method in brief: as §3

[21] = tested on: field corn (Zea mays L., var. Dekalb 535, CORN); test: Post-emerge test, crop safety; settings: post-emerge, 14 days after application, rating scale 0-100
Method in brief: as §1

[22] = tested on: upland rice (Oryza sp., var. Tebonnet, RICE); test: Post-emerge test, crop safety; settings: post-emerge, 14 days after application, rating scale 0-100
Method in brief: as §1

**Q.** What does the source list for `COc1c(Cl)cc(F)c(-n2c(=O)cc(C(F)(F)F)n(N)c2=O)c1NC(=O)c1ccc2ccccc2c1` [2-77]?
**A.** Pre-emerge Herbicidal Activity, phytotoxicity rating (0-100), AMARE ([1]; 63 g ai/ha): 70; Pre-emerge Herbicidal Activity, phytotoxicity rating (0-100), AMARE ([1]; 250 g ai/ha): 100; Pre-emerge Herbicidal Activity, phytotoxicity rating (0-100), ECHCG ([2]; 63 g ai/ha): 0; Pre-emerge Herbicidal Activity, phytotoxicity rating (0-100), ECHCG ([2]; 250 g ai/ha): 0; Pre-emerge Herbicidal Activity, phytotoxicity rating (0-100), SETVI ([3]; 63 g ai/ha): 0; Pre-emerge Herbicidal Activity, phytotoxicity rating (0-100), SETVI ([3]; 250 g ai/ha): 60; Pre-emerge Herbicidal Activity, phytotoxicity rating (0-100), IPOHE ([4]; 63 g ai/ha): 0; Pre-emerge Herbicidal Activity, phytotoxicity rating (0-100), IPOHE ([4]; 250 g ai/ha): 30; Pre-emerge Herbicidal Activity, phytotoxicity rating (0-100), SORHA ([5]; 63 g ai/ha): 0; Pre-emerge Herbicidal Activity, phytotoxicity rating (0-100), SORHA ([5]; 250 g ai/ha): 0; Pre-emerge Herbicidal Activity, phytotoxicity rating (0-100), CHEAL ([6]; 63 g ai/ha): 90; Pre-emerge Herbicidal Activity, phytotoxicity rating (0-100), CHEAL ([6]; 250 g ai/ha): 100; Pre-emerge Herbicidal Activity, phytotoxicity rating (0-100), DIGSA ([7]; 63 g ai/ha): 0; Pre-emerge Herbicidal Activity, phytotoxicity rating (0-100), DIGSA ([7]; 250 g ai/ha): 30; Pre-emerge Herbicidal Activity, phytotoxicity rating (0-100), CASOB ([8]; 63 g ai/ha): 0; Pre-emerge Herbicidal Activity, phytotoxicity rating (0-100), CASOB ([8]; 250 g ai/ha): 30; Pre-emerge Herbicidal Activity, phytotoxicity rating (0-100), ABUTH ([9]; 63 g ai/ha): 30; Pre-emerge Herbicidal Activity, phytotoxicity rating (0-100), ABUTH ([9]; 250 g ai/ha): 100; Pre-emerge phytotoxicity rating (0-100), crop damage, CORN ([10]; 63 g ai/ha): 0; Pre-emerge phytotoxicity rating (0-100), crop damage, CORN ([10]; 250 g ai/ha): 0; Pre-emerge phytotoxicity rating (0-100), crop damage, RICE ([11]; 63 g ai/ha): 0; Pre-emerge phytotoxicity rating (0-100), crop damage, RICE ([11]; 250 g ai/ha): 20; phytotoxicity rating ECHCG ([12]; 63 g ai/ha): 0; phytotoxicity rating ECHCG ([12]; 250 g ai/ha): 0; phytotoxicity rating SETVI ([13]; 63 g ai/ha): 0; phytotoxicity rating SETVI ([13]; 250 g ai/ha): 0; phytotoxicity rating IPOHE ([14]; 63 g ai/ha): 60; phytotoxicity rating IPOHE ([14]; 250 g ai/ha): 95; phytotoxicity rating SORHA ([15]; 63 g ai/ha): 0; phytotoxicity rating SORHA ([15]; 250 g ai/ha): 0; phytotoxicity rating CHEAL ([16]; 63 g ai/ha): 100; phytotoxicity rating CHEAL ([16]; 250 g ai/ha): 80; phytotoxicity rating DIGSA ([17]; 63 g ai/ha): 0; phytotoxicity rating DIGSA ([17]; 250 g ai/ha): 0; phytotoxicity rating AMARE ([18]; 63 g ai/ha): 10; phytotoxicity rating AMARE ([18]; 250 g ai/ha): 100; phytotoxicity rating CASOB ([19]; 63 g ai/ha): 40; phytotoxicity rating CASOB ([19]; 250 g ai/ha): 100; phytotoxicity rating ABUTH ([20]; 63 g ai/ha): 100; phytotoxicity rating ABUTH ([20]; 250 g ai/ha): 100; phytotoxicity rating CORN ([21]; 63 g ai/ha): 0; phytotoxicity rating CORN ([21]; 250 g ai/ha): 10; phytotoxicity rating RICE ([22]; 63 g ai/ha): 20; phytotoxicity rating RICE ([22]; 250 g ai/ha): 40
